Experimental data: patent publication US4513001A, “β-Adrenergic 1-[1-benzimidazolyl]-N-[2-(4-hydroxy-3-methoxy-phenyl)-2-hydroxy-ethyl]- 3-amino butane and salts and hydrates thereof” (priority 1982, dated 1985)
Like-named read-outs stand apart in the source and are kept apart here.

Tests used:
histamine bronchospasm [1] = test: Bronchodilator activity in vivo, anesthetized dog, intraduodenal (intratracheal pressure, histamine bronchospasm)
Experimental: 1.2.2. In the anesthesized dog (recording of the intratracheal pressure)
A bronchospasm was caused by intravenous injection and histamine. The bronchodilator activity was shown by partial or total inhibition of this spasm.
The products studied were administered intraduodenally and the histamine injected then at various times to follow the effect of the treatment.
The results borne in the table below are the averages of the values obtained in 3 animals for each product.

[2] = system: heart rate and mean aortic pressure; test: Heart rate and mean aortic pressure of the anesthetised dog, intraduodenal; assay type: in vivo; settings: intraduodenal
Experimental: 3.1.1. Activity on the heart rate and on the mean aortic pressure of the anesthetisied dog
The activity of the compound A and of Salbutamol was studied on 2 batches of 3 dogs per product: one in spontaneous respiration, the other in artificial respiration; the two substances were administered intraduodenally at 3 doses: 0.008-0.025 and 0.08 mg/kg.

[3] = system: isolated right atrium preparation of the guinea pig; test: Activity on the heart rate in vitro, isolated right atrium
Experimental: This action was studied on an isolated right atrium preparation of the guinea pig kept alive in a RINGER solution. The effect of cumulative doses on the heart rate was recorded. The results below are the averages of 6 preparations of the compound A, of 4 for Salbutamol

histamine bronchospasm [4] = test: Bronchodilator activity in vivo, anesthetized guinea pig, intraduodenal (inhibition of histamine bronchospasm, KONZETT)
Experimental: (§1) 1.2.1 In the anesthesized guinea pig (method of KONZETT. Arch. Exp. Pathol. Pharmakol. 1940 195 71-74)
(§2) A bronchospasm was caused by intravenous histamine injection. The bronchodilator activity was shown by partial or total inhibition of this spasm.
The product studied was administered intravenously or intraduodenaly and histamine injected then at different times to follow the delay in appearance and the duration of the inhibiting effect of the treatment.
The results below are the averages of the values obtained in 10 animals.

rat uterus preparation = test: Uterus relaxing activity in vitro; settings: Rattus norvegicus, 7 preparations, read-out: CE50 (effective concentration 50, inhibiting by 50% the control contraction)
From the text: This activity was investigated on a rat uterus preparation, put into estrus by cutaneous injection of oestradiol benzoate. The uterine horns were kept alive in a RINGER-LOCKE solution, modified by GADDUM and VOGT.
Their activity is expressed by the value of the molar CE50 (effective concentration 50, inhibiting by 50% the control contraction induced by the contracting agent).
Each CE50 indicated below was obtained from the results of 7 preparations.

histamine bronchospasm [5] = test: Bronchodilator activity in vivo, anesthetized guinea pig, intravenous (inhibition of histamine bronchospasm, KONZETT); settings: i.v.
Experimental: as §1, §2
The product studied was administered intravenously or intraduodenaly and histamine injected then at different times to follow the delay in appearance and the duration of the inhibiting effect of the treatment. […]

guinea pig trachea = test: β-stimulant specificity: guinea pig trachea before and after propranolol; settings: for EC50: Cavia porcellus, 6 preparations
From the text: respiratory (guinea pig trachea, in vitro)
cardiovascular (heart rate of the dog, in vivo) by the antagonistic effect of a β-blocking product.

[6] = system: isolated trachea preparation of the guinea pig; test: Relaxant activity on isolated tracheal muscle in vitro; settings: 6 preparations
Experimental: This activity was studied on an isolated trachea preparation of the guinea pig (chain of tracheal rings, according to CASTILLO and BEER. Journ. Pharmacol. Exp. Ther. 1947 90 104-109), kept alive in a KREBS solution. The effect of cumulative doses on the pressure of the preparation was recorded.
The activity of the substance was expressed by the value of the molar CD50 (decontracting concentration 50=concentration giving 50% of maximum relaxation), of which the negative log. is the value pD2, and by the intrinsic activity corresponding to maximum effect.
These values were determined in parallel for the compound A and Salbutamol, on 6 preparations for each.

- EC50 (rat uterus preparation; contracting agent acetylcholine): 5 nM
- EC50 (rat uterus preparation; contracting agent serotonine): 8.3 nM
Structure (SMILES): CC(C)(C)NCC(O)c1ccc(O)c(CO)c1 (stereo not drawn) [Salbutamol, reference compound]
- % inhibition in time (histamine bronchospasm [1]; 0.025 mg base/kg, 5 min): 21%
- % inhibition in time (histamine bronchospasm [1]; 0.025 mg base/kg, 20 min): 65%
- % inhibition in time (histamine bronchospasm [1]; 0.025 mg base/kg, 35 min): 63%
- % inhibition in time (histamine bronchospasm [1]; 0.025 mg base/kg, 60 min): 61%
- % inhibition in time (histamine bronchospasm [1]; 0.025 mg base/kg, 90 min): 65%
- % inhibition in time (histamine bronchospasm [1]; 0.08 mg base/kg, 5 min): 8%
- % inhibition in time (histamine bronchospasm [1]; 0.08 mg base/kg, 20 min): 50%
- % inhibition in time (histamine bronchospasm [1]; 0.08 mg base/kg, 35 min): 56%
- % inhibition in time (histamine bronchospasm [1]; 0.08 mg base/kg, 60 min): 55%
- % inhibition in time (histamine bronchospasm [1]; 0.08 mg base/kg, 90 min): 52%
- Heart rate, maximum cumulative effect ([2]; artificial respiration, 15 min after 0.025 mg/kg): +41 cpm
- Average aortic pressure, maximum cumulative effect ([2]; artificial respiration, 90 min after 0.08 mg/kg): -36 mmHg
- Heart rate, maximum cumulative effect ([2]; spontaneous respiration, 20 min after 0.08 mg/kg): +26 cpm
- Average aortic pressure, maximum cumulative effect ([2]; spontaneous respiration, 1 h after 0.08 mg/kg): -40 mmHg
- Heart rate, increase ([3]; 1 × 10^-4 mol): +110 beats per min.
- Heart rate, maximum ([3]; 1 × 10^-4 mol, basal 202 (Salbutamol)): 312 beats per min.
- Heart rate, increase ([3]; 1 × 10^-5 mol (maxi for Salbutamol)): +115 beats per min.
- Heart rate, maximum ([3]; 1 × 10^-5 mol, basal 209 (Compound A), 202 (Salbutamol)): 317 beats per min.
- Heart rate, increase ([3]; 1 × 10^-6 mol (maxi for Compound A)): +106 beats per min.
- Heart rate, maximum ([3]; 1 × 10^-6 mol, basal 209 (Compound A), 202 (Salbutamol)): 308 beats per min.
- Heart rate, increase ([3]; 1 × 10^-7 mol): +90 beats per min.
- Heart rate, maximum ([3]; 1 × 10^-7 mol, basal 209 (Compound A), 202 (Salbutamol)): 292 beats per min.
- Heart rate, increase ([3]; 1 × 10^-8 mol): +49 beats per min.
- Heart rate, maximum ([3]; 1 × 10^-8 mol, basal 202 (Salbutamol)): 251 beats per min.
- Dose to obtain a high activity (histamine bronchospasm [4]): 8 mg/kg
- % inhibition in time (histamine bronchospasm [4]; 0.8 mg base/kg, 1 min): 4%
- % inhibition in time (histamine bronchospasm [4]; 0.8 mg base/kg, 5 min): 18%
- % inhibition in time (histamine bronchospasm [4]; 0.8 mg base/kg, 15 min): 16%
- % inhibition in time (histamine bronchospasm [4]; 0.8 mg base/kg, 30 min): 16%
- % inhibition in time (histamine bronchospasm [4]; 0.8 mg base/kg, 45 min): 13%
- % inhibition in time (histamine bronchospasm [4]; 0.8 mg base/kg, 60 min): 13%
- % inhibition in time (histamine bronchospasm [4]; 2.5 mg base/kg, 1 min): 2%
- % inhibition in time (histamine bronchospasm [4]; 2.5 mg base/kg, 5 min): 14%
- % inhibition in time (histamine bronchospasm [4]; 2.5 mg base/kg, 15 min): 32%
- % inhibition in time (histamine bronchospasm [4]; 2.5 mg base/kg, 30 min): 34%
- % inhibition in time (histamine bronchospasm [4]; 2.5 mg base/kg, 45 min): 29%
- % inhibition in time (histamine bronchospasm [4]; 2.5 mg base/kg, 60 min): 23%
- % inhibition in time (histamine bronchospasm [4]; 2.5 mg base/kg, 90 min): 15%
- % inhibition in time (histamine bronchospasm [4]; 2.5 mg base/kg, 120 min): 10%
- % inhibition in time (histamine bronchospasm [4]; 8 mg base/kg, 1 min): 31%
- % inhibition in time (histamine bronchospasm [4]; 8 mg base/kg, 5 min): 64%
- % inhibition in time (histamine bronchospasm [4]; 8 mg base/kg, 15 min): 76%
- % inhibition in time (histamine bronchospasm [4]; 8 mg base/kg, 30 min): 72%
- % inhibition in time (histamine bronchospasm [4]; 8 mg base/kg, 45 min): 65%
- % inhibition in time (histamine bronchospasm [4]; 8 mg base/kg, 60 min): 58%
- % inhibition in time (histamine bronchospasm [4]; 8 mg base/kg, 90 min): 52%
- % inhibition in time (histamine bronchospasm [4]; 8 mg base/kg, 120 min (n = 9 compound A, n = 8 Salbutamol)): 37%
- % inhibition in time (histamine bronchospasm [5]; 0.08 μg base/kg, 1 min): 8%
- % inhibition in time (histamine bronchospasm [5]; 0.08 μg base/kg, 5 min): 2%
- % inhibition in time (histamine bronchospasm [5]; 0.08 μg base/kg, 10 min): 0%
- % inhibition in time (histamine bronchospasm [5]; 0.08 μg base/kg, 15 min): 1%
- % inhibition in time (histamine bronchospasm [5]; 0.25 μg base/kg, 1 min): 25%
- % inhibition in time (histamine bronchospasm [5]; 0.25 μg base/kg, 5 min): 6%
- % inhibition in time (histamine bronchospasm [5]; 0.25 μg base/kg, 10 min): 2%
- % inhibition in time (histamine bronchospasm [5]; 0.25 μg base/kg, 15 min): 2%
- % inhibition in time (histamine bronchospasm [5]; 0.8 μg base/kg, 1 min): 54%
- % inhibition in time (histamine bronchospasm [5]; 0.8 μg base/kg, 5 min): 8%
- % inhibition in time (histamine bronchospasm [5]; 0.8 μg base/kg, 10 min): 7%
- % inhibition in time (histamine bronchospasm [5]; 0.8 μg base/kg, 15 min): 2%
- % inhibition in time (histamine bronchospasm [5]; 2.5 μg base/kg, 1 min): 75%
- % inhibition in time (histamine bronchospasm [5]; 2.5 μg base/kg, 5 min): 13%
- % inhibition in time (histamine bronchospasm [5]; 2.5 μg base/kg, 10 min): 8%
- % inhibition in time (histamine bronchospasm [5]; 2.5 μg base/kg, 15 min): 4%
- % inhibition in time (histamine bronchospasm [5]; 8 μg base/kg, 1 min): 91%
- % inhibition in time (histamine bronchospasm [5]; 8 μg base/kg, 5 min): 35%
- % inhibition in time (histamine bronchospasm [5]; 8 μg base/kg, 10 min): 13%
- % inhibition in time (histamine bronchospasm [5]; 8 μg base/kg, 15 min): 8%
- % inhibition in time (histamine bronchospasm [5]; 25 μg base/kg, 1 min): 97%
- % inhibition in time (histamine bronchospasm [5]; 25 μg base/kg, 5 min): 78%
- % inhibition in time (histamine bronchospasm [5]; 25 μg base/kg, 10 min): 34%
- % inhibition in time (histamine bronchospasm [5]; 25 μg base/kg, 15 min): 22%
- % inhibition in time (histamine bronchospasm [5]; 83 μg base/kg, 1 min): 94%
- % inhibition in time (histamine bronchospasm [5]; 83 μg base/kg, 5 min): 81%
- % inhibition in time (histamine bronchospasm [5]; 83 μg base/kg, 10 min): 60%
- % inhibition in time (histamine bronchospasm [5]; 83 μg base/kg, 15 min): 55%
- % inhibition in time (histamine bronchospasm [5]; 83 μg base/kg, 30 min): 50%
- % inhibition in time (histamine bronchospasm [5]; 83 μg base/kg, 45 min (n = 9)): 30%
- % inhibition in time (histamine bronchospasm [5]; 83 μg base/kg, 60 min (n = 9)): 17%
- EC50 (guinea pig trachea; read-out: CD50 before propranolol): 11 nM
- EC50 (guinea pig trachea; propranolol 1.7×10^-8 mol, read-out: CD50 after propranolol): 38 nM
- Ratio of CD50 (guinea pig trachea; after / before propranolol): 3.5
- Maximum response (decontraction) [6]: 358 mg
- Emax ([6]; Cavia porcellus, Salbutamol 1.00, read-out: Intrinsic activity): 100%
- EC50 ([6]; Cavia porcellus, read-out: CD50 (decontracting concentration 50, concentration giving 50% of maximum relaxation)): 15 nM
- EC50 ([6]; Cavia porcellus, negative log of molar CD50, read-out: pD2 (converted)): 15.1 nM
